One block for each compound: values may come before it.
Columns and labels:
FKBP12 [1] = biological target: T1, FKBP12 (Homo sapiens, UniProt P62942); assay: Fluorescence Polarization (FP) Assay of FKBP12 Binding; settings: for Ki: rotamase Ki derived from FP assay; for inhibition at 1 µM: read-out: % FP inhibition at 1 μM
Protocol: Fluorescence Polarization (FP) Assay of FKBP12 Binding
The buffer (25 mM HEPES, 100 mM sodium chloride, pH 7.5) with pre-mixed enzyme and fluorescent ligand is distributed into wells (190 μL/well). Inhibitors are added as 10 μL of a 10% dimethylsulfoxide solution in the same buffer. FP is measured with an excitation wavelength of 485 nm and emission wavelength of 520 nm.

FKBP12 [2] = biological target: T1, FKBP12; assay: FKBP12 Rotamase Inhibition Assay; type: biochemical
Protocol: FKBP12 Rotamase Inhibition Assay
The rotamase activity of FKBP-12 was measured by an adaptation of the assay described by Kofron et al. (Biochemistry, 30, pp. 6127-6134 (1991)). The assay was carried out at 4° C. with 1 mg chymotrypsin/mL of assay with succinyl-Ala-Leu-Pro-Phe-p-nitroanilide as the substrate. Chymotrypsin rapidly hydrolyzes the peptide bond on the C-terminal side of the Phe of the trans form of the peptide and releases the chromogenic p-nitroaniline. The rate of the reaction is controlled by the rate of conversion of the cis form of the peptide to the trans-form, the reaction catalyzed by FKBP12. The apparent Ki values for inhibition of the rotamase activity were determined by measuring decreases in the first order rate constant of the reaction catalyzed by FKBP12 as a function of the concentrations of the compounds described herein. Ki is the concentration of the compound that causes 50 percent inhibition of rotamase activity which is indicative of neurite outgrowth activity.

[3] = Table 1, 1 μM compound, 100 nM fluorescent ligand, 200 nM FKBP12

T1 sequence (P62942 whole entry, species assumed): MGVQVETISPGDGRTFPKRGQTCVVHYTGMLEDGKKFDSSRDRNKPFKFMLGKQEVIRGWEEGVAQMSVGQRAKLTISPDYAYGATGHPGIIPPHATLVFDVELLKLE

SMILES: COc1ccc(CCC(Cc2ccc(OC)c(OC)c2)CN2C[C@H]3CC[C@@H](C2=O)N3C(=O)C(=O)c2cc(OC)c(OC)c(OC)c2)cc1OC (stereo partly drawn) [Example 13, (1S,5R)-8-(3,4,5-Trimethoxyphenyl)oxalyl-3,8-diaza-3-[4-(3,4-dimethoxyphenyl)-2-((3,4-dimethoxyphenyl)methyl)butyl]bicyclo[3.2.1]octan-2-one]
Ki (FKBP12 [1]; Table 2): 122 nM

SMILES: COc1ccc(CCCC(CCCc2ccc(OC)c(OC)c2)CN2C[C@H]3CC[C@@H](C2=O)N3C(=O)C(=O)c2cc(OC)c(OC)c(OC)c2)cc1OC [Example 12, (1S,5R)-8-(3,4,5-Trimethoxyphenyl)oxalyl-3,8-diaza-3-[5-(3,4-dimethoxyphenyl)-2-(3-(3,4-dimethoxyphenyl)propyl)pentyl]bicyclo[3.2.1]octan-2-one]
Ki (FKBP12 [1]; Table 2): 47 nM

SMILES: COc1cc(C(F)(F)C(=O)N2C3CCC2C(=O)N(CCCc2ccccc2)C3)cc(OC)c1OC [Example 27, (1S,5R)-8-(3,4,5-Trimethoxyphenyl)difluoroacetyl-3,8-diaza-3-(3-phenylpropyl)bicyclo[3.2.1]octan-2-one]
inhibition at 1 µM (FKBP12 [1]; [3]): 22%

SMILES: COc1ccc(CCCCN2CC3CCC(C2=O)N3C(=O)C(=O)c2cc(OC)c(OC)c(OC)c2)cc1OC [Example 4, (1S,5R)-8-(3,4,5-Trimethoxyphenyl)oxalyl-3,8-diaza-3-[4-(3,4-dimethoxyphenyl)butyl]bicyclo[3.2.1]octan-2-one]
inhibition at 1 µM (FKBP12 [1]; [3]): 15%

SMILES: COc1cc(C(=O)C(=O)N2C3CCC2C(=O)N(C(CCc2ccccc2)CCc2ccccc2)C3)cc(OC)c1OC [Example 5, (1S,5R)-8-(3,4,5-Trimethoxyphenyl)oxalyl-3,8-diaza-3-[3-phenyl-1-(2-phenylethyl)propyl]bicyclo[3.2.1]octan-2-one]
inhibition at 1 µM (FKBP12 [2]; Table 2, 1 μM compound): 49%

SMILES: COc1cc(C(F)(F)C(=O)N2C3CCC2C(=O)N(CCCCc2ccccc2)C3)cc(OC)c1OC [Example 32, (1S,5R)-8-(3,4,5-Trimethoxyphenyl)difluoroacetyl-3,8-diaza-3-(4-phenylbutyl)bicyclo-[3.2.1]octan-2-one]
inhibition at 1 µM (FKBP12 [1]; [3]): 4%

SMILES: COc1ccc(CCCC(CCCc2ccc(OC)c(OC)c2)CN2CC3CCCC(C2=O)N3C(=O)C(=O)c2cc(OC)c(OC)c(OC)c2)cc1OC (stereo not shown) [Example 24, 9-(3,4,5-Trimethoxyphenyl)oxalyl-3,9-diaza-3-[5-(3,4-dimethoxyphenyl)-2-(3-(3,4-dimethoxy-phenyl)propyl)pentyl]bicyclo-[3.3.1]nonan-2-one]
Ki (FKBP12 [1]; Table 2): 21 nM

SMILES: COc1ccc(CCCC(CCCc2ccccc2)N2CC3CCCC(C2=O)N3C(=O)C(=O)c2cc(OC)c(OC)c(OC)c2)cc1OC (stereo not shown) [Example 21, 9-(3,4,5-Trimethoxyphenyl)oxalyl-3,9-diaza-3-[4-(3,4-dimethoxyphenyl)-1-(3-phenylpropyl)butyl]bicyclo[3.3.1]nonan-2-one]
inhibition at 1 µM (FKBP12 [1]; Table 2, 1 μM compound, 100 nM fluorescent ligand, 200 nM FKBP12): 1%

SMILES: COc1cc(C(=O)C(=O)N2C3CCC2C(=O)N(CCCO)C3)cc(OC)c1OC [Example 42, (1S,5R)-8-(3,4,5-trimethoxyphenyl)oxalyl-3,8-diaza-3-(3-hydroxypropyl)bicyclo[3.2.1]octan-2-one]
inhibition at 1 µM (FKBP12 [1]; [3]): 19%

Ki (FKBP12 [2]; read-out: Ki measured by the prolyl isomerase assay): 32 nM
SMILES: CCC(C)(C)C(=O)C(=O)N1CCCC[C@H]1C(=O)OC(CCCc1ccccc1)CCNC(=S)Nc1ccc(-c2c3ccc(=O)cc-3oc3cc(O)ccc23)c(C(=O)O)c1 (stereo partly drawn) [fluorescent FKBP12 ligand, 1-Phenyl-6-(fluoresceinylaminothiocarbamoyl)-4-hexyl-(S)-N-(t-pentylglyoxyl)pipecolate, reference compound]

SMILES: COc1cc(CCCN2CC3CCCC(C2=O)N3C(=O)C(=O)c2cc(OC)c(OC)c(OC)c2)cc(OC)c1OC (stereo not shown) [Example 15, 9-(3,4,5-Trimethoxyphenyl)oxalyl-3,9-diaza-3-[3-(3,4,5-trimethoxyphenyl)propyl]bicyclo[3.3.1]nonan-2-one]
inhibition at 1 µM (FKBP12 [1]; [3]): 44%
Ki (FKBP12 [1]; Table 1): 100 nM

SMILES: COc1ccc(CCCCN2CC3CCCC(C2=O)N3C(=O)C(F)(F)c2cc(OC)c(OC)c(OC)c2)cc1OC (stereo not shown) [Example 36, 9-(3,4,5-Trimethoxyphenyl)difluoroacetyl-3,9-diaza-3-[4-(3,4-dimethoxyphenyl)butyl]bicyclo[3.3.1]-nonan-2-one]
Ki (FKBP12 [1]; Table 1): 160 nM
inhibition at 1 µM (FKBP12 [1]): 61%

SMILES: COc1ccc(CCCN2CC3CCC(C2=O)N3C(=O)C(F)(F)c2cc(OC)c(OC)c(OC)c2)cc1OC [Example 28, (1S,5R)-8-(3,4,5-Trimethoxyphenyl)difluoroacetyl-3,8-diaza-3-[3-(3,4-dimethoxyphenyl)propyl]bicyclo[3.2.1]octan-2-one]
inhibition at 1 µM (FKBP12 [1]; [3]): 13%

SMILES: COC(=O)C(=O)N1C2CCCC1C(=O)N(CCCc1cc(OC)c(OC)c(OC)c1)C2 (stereo not shown) [Example 40, Methyl-2-{3,9-diaza-2-oxo-3-[3-(3,4,5-trimethoxyphenyl)propyl]bicyclo[3.3.1]non-9-yl}-2-oxoacetate]
inhibition at 1 µM (FKBP12 [1]; [3]): 6%

Source: patent publication US6818643B1, “Neurotrophic bicyclic diamides” (Bristol-Myers Squibb Company, priority 1999, dated 2004)
